Assay results taken from the NIST ThermoML archive (doi:10.1021/je901043q).

Experiment: xn = mol fraction of the nth substance listed
Settings: 101 kPa, Liquid

CCCCn1cc[n+](C)c1.N#C[S-] [1-butyl-3-methylimidazolium thiocyanate] + CCCCCCCCO
Settings	mass density [kg/m3]	viscosity [mPa·s]
298.15 K, x1 = 0.0874	847.17	9.062
298.15 K, x1 = 0.1352	860.64	10.03
298.15 K, x1 = 0.2208	884.32	12.08
298.15 K, x1 = 0.3599	921.24	16.3
298.15 K, x1 = 0.4693	949.07	20.44
298.15 K, x1 = 0.5739	974.82	24.86
298.15 K, x1 = 0.675	998.86	29.44
298.15 K, x1 = 0.7673	1020.12	–
298.15 K, x1 = 0.8721	1043.42	39.69
298.15 K, x1 = 0.9619	1062.27	45.09
298.15 K, x1 = 1	1069.79	51.74
308.15 K, x1 = 0.0874	840.37	6.504
308.15 K, x1 = 0.1352	853.92	7.237
308.15 K, x1 = 0.2208	877.72	8.726
308.15 K, x1 = 0.3599	914.82	11.7
308.15 K, x1 = 0.4693	942.78	14.47
308.15 K, x1 = 0.5739	968.64	17.39
308.15 K, x1 = 0.675	992.79	20.38
308.15 K, x1 = 0.7673	1014.13	–
308.15 K, x1 = 0.8721	1037.47	26.63
308.15 K, x1 = 0.9619	1056.33	29.99
308.15 K, x1 = 1	1063.89	34.87
318.15 K, x1 = 0.0874	833.52	4.842
318.15 K, x1 = 0.1352	847.19	5.396
318.15 K, x1 = 0.2208	871.11	6.516
318.15 K, x1 = 0.3599	908.42	8.719
318.15 K, x1 = 0.4693	936.52	10.67
318.15 K, x1 = 0.5739	962.5	12.72
318.15 K, x1 = 0.675	986.77	14.79
318.15 K, x1 = 0.7673	1008.17	–
318.15 K, x1 = 0.8721	1031.58	18.95
318.15 K, x1 = 0.9619	1050.45	21.14
318.15 K, x1 = 1	1058.02	24.19
328.15 K, x1 = 0.0874	826.65	3.691
328.15 K, x1 = 0.1352	840.37	4.158
328.15 K, x1 = 0.2208	864.48	5.003
328.15 K, x1 = 0.3599	902.01	6.654
328.15 K, x1 = 0.4693	930.28	8.141
328.15 K, x1 = 0.5739	956.41	9.644
328.15 K, x1 = 0.675	980.77	11.14
328.15 K, x1 = 0.7673	1002.28	–
328.15 K, x1 = 0.8721	1025.72	14.06
328.15 K, x1 = 0.9619	1044.62	15.59
328.15 K, x1 = 1	1052.19	16.7
338.15 K, x1 = 0.0874	819.63	2.884
338.15 K, x1 = 0.1352	833.53	3.272
338.15 K, x1 = 0.2208	857.82	3.928
338.15 K, x1 = 0.3599	895.62	5.233
338.15 K, x1 = 0.4693	924.05	6.379
338.15 K, x1 = 0.5739	950.33	7.509
338.15 K, x1 = 0.675	974.82	8.648
338.15 K, x1 = 0.7673	996.4	–
338.15 K, x1 = 0.8721	1019.88	10.82
338.15 K, x1 = 0.9619	1038.82	11.94
338.15 K, x1 = 1	1046.43	12.73
348.15 K, x1 = 0.0874	812.55	2.306
348.15 K, x1 = 0.1352	826.58	2.633
348.15 K, x1 = 0.2208	851.13	3.171
348.15 K, x1 = 0.3599	889.21	4.233
348.15 K, x1 = 0.4693	917.85	5.1
348.15 K, x1 = 0.5739	944.27	5.987
348.15 K, x1 = 0.675	968.89	6.874
348.15 K, x1 = 0.7673	990.57	–
348.15 K, x1 = 0.8721	1014.14	8.592
348.15 K, x1 = 0.9619	1033.09	9.462
348.15 K, x1 = 1	1040.7	9.98
